One data set deals with Cytochrome P450 3A4 (Homo sapiens, UniProt P08684). The data set can be described thus: Inhibition of human CYP3A4.
A short description of data set [1]: Metabolic stability in human liver microsomes assessed as parent compound remaining incubated for 10 mins. Particulars: read-out: Stability. The class given is ADME.
Data set [2] concerns the target T1, Nuclear receptor ROR-gamma (Homo sapiens, UniProt P51449).
T1 sequence (P51449 whole entry): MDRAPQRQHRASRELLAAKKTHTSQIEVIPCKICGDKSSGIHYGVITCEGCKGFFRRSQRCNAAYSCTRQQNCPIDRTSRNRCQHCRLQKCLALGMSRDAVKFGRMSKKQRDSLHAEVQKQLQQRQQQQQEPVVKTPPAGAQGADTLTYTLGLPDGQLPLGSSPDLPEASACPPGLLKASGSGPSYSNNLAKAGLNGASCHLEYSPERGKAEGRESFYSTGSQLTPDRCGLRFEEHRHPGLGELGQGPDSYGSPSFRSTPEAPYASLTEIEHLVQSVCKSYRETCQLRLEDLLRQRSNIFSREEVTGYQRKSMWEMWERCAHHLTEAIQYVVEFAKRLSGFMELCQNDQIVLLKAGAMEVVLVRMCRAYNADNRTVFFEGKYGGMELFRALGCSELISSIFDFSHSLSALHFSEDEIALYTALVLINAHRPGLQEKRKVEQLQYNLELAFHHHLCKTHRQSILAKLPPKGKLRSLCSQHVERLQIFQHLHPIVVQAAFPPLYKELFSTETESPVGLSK
The data set is described as follows: Inhibition of human GST-tagged RORgamma ligand binding domain (253 to 518 residues) expressed in sf9 cells using biotin-EEPSLLKKLLLAPA by FRET assay.

Data set [3] deals with T2, Nuclear receptor ROR-gamma (Mus musculus, UniProt P51450).
T2 sequence (P51450 whole entry): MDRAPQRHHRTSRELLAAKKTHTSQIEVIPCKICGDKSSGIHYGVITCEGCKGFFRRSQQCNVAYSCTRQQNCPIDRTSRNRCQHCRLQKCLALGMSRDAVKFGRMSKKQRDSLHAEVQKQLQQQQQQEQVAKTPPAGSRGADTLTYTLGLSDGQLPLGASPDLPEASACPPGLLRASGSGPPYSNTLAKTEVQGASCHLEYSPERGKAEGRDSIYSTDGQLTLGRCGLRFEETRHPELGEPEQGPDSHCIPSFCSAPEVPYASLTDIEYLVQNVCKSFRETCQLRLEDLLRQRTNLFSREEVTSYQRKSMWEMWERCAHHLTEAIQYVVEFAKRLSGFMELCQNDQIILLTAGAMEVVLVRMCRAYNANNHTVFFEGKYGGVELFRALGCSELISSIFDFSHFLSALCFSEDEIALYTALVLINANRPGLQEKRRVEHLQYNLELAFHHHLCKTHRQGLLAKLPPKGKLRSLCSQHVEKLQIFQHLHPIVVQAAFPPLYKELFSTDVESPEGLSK
The data set is described as follows: Inhibition of mouse RORgamma ligand binding domain (Isoleucine 251 to Lysine 516) expressed in CHOK1 cells incubated for 2 days by Gal4 luciferase reporter gene assay. The class given is cell-based, CHO-K1. Background: In a reporter assay the amount or activity of a reporter protein is the signal.

Data set [4] has as its target T1, Nuclear receptor ROR-gamma.
Description: Inhibition of human RORgamma ligand binding domain (Serine 253 to Lysine 518 residues) expressed in CHOK1 cells incubated for 2 days by Gal4 luciferase reporter gene assay

Each structure is given as a SMILES string.

As a reminder, the IC50 is the point on the concentration scale where inhibition reaches its midpoint. Read a low IC50 as greater potency. Usually EC50 stands for the concentration that produces a half-maximal response. A higher EC50 goes with a need for much substance.

Sequence of Cytochrome P450 3A4 (P08684 whole entry): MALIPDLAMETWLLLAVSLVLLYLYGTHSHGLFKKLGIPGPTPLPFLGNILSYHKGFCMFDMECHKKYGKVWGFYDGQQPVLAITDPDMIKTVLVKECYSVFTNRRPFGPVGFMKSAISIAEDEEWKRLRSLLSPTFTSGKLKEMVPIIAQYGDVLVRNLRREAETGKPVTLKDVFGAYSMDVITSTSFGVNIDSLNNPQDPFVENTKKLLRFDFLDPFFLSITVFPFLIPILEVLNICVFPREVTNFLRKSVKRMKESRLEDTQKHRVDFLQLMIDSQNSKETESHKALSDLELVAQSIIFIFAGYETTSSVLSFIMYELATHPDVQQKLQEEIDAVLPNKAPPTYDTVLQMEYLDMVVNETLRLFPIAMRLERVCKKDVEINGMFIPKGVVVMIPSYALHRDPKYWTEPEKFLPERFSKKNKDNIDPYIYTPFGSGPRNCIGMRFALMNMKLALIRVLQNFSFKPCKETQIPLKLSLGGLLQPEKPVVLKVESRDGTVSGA

`CCn1c(SCC(=O)Nc2cccc3ccccc23)nnc1C1Cc2ccccc2C1`: the IC50 at Cytochrome P450 3A4 came out at 4 µM. Besides, in data set [1], the remaining at 10 min was found to be 18%. Also, the half-maximal effective concentration (EC50) stood at 0.85 µM in data set [2], 0.7 µM in data set [3] and 1.7 µM in data set [4].
